Legend:
[1] = tested on: B cell activation as measured by CD69 expression in mouse splenocytes; assay: Inhibition of B cell activation as measured by CD69 expression in mouse splenocytes (flow cytometry); format: cell-based; settings: C57/BL6 splenocytes, 3 µg/mL goat anti-mouse IgM, 18-20 hours, CD69 +ve cells within CD19; read-out: IC50 (nM) in B cell activation assay in Mouse spleenocytes
Excerpt: Inhibition of B cell activation as measured by CD69 expression in mouse splenocytes:
To test the effect of BTK inhibitors in suppressing B-cell receptor (BCR) mediated activation of B cells, we developed a flow cytometry based assay to analyze CD69 expression in B cell population among total splenocyte from the mouse. C57/BL6 mouse spleens were dissected out and splenocytes were isolated by mincing the tissue with a syringe plunger followed by RBC lysis (0.85% ammonium chloride, (Qualigens,Cat #21405) and several washes in PBS. Finally, cell were cultured in culture medium [RPMI medium (Sigma, Cat R6504) with 10% FBS (Gibco - Cat #10270).
Test compounds were diluted half log starting from 2 mM in 100% DMSO (Sigma, cat#D2650) (200X). 1x10^5 splenocytes were incubated with 1 µL of diluted test compounds in 200 µL culture medium in a U-bottom 96 well plate (Greiner) at 37°C with 5% CO2 for 30 minutes. Control wells received 1 µL of 100% DMSO without any compound. The cells were stimulated with 3 µg/mL goat anti-mouse IgM (Sigma, cat#M8644) and incubated for 18-20 hours. After the stimulation, cells were washed in cold PBS with 1% FBS and stained with 1:100 dilution of anti-CD69-PE (eBioscience, cat#12-0691-83) and anti-CD19-PE.Cy5 (eBioscience, cat#15-0193-83) for 1 hour on ice. Then the cells were washed 3 times with PBS with 1% FBS and analyzed by Guava Easycyte Mini flow cytometer system (Millipore). Flow cytometry data were analyzed using Weasel software (WEHI, Melbourne). B cells were gated using CD19 marker. Expression of CD69 was analyzed as percentage of CD69 +ve cells within CD19. Percent activity for each data point was calculated using following formula: [formula]
(§1) Percentage activity was fit using sigmoid dose response with variable slope logistic equation in GraphPad Prism 5 software to determine IC50.

[2] = target: T1, Recombinant Human Bruton's tyrosine kinase (Btk) (Homo sapiens, UniProt Q06187); assay: Recombinant Human Bruton's tyrosine kinase (Btk) inhibition assay (HTRF KinEASE-TK); format: biochemical; settings: 20 ng/ml rhBtk, 77 µM ATP (KM), 1 µM TK-Biotin Substrate, 90 minutes; read-out: IC50 (nM) in recombinant hBTK assay
T1 construct: Full length human BTK (hBTK, Genbank#NM_000061.2) was cloned into pFastBac-HTB vector; 6XHis (N); made in house; host or cells: Sf9 cells (Bac-to-Bac baculovirus expression system)
Experimental: Recombinant Human Bruton's tyrosine kinase (Btk) inhibition assay.
Full length human BTK (hBTK, Genbank#NM_000061.2) was cloned into pFastBac-HTB vector (Invitrogen, cat#10359-016). hBTK gene was expressed with N'-terminal 6XHis tag in Sf9 cells using Bac-to-Bac ^(R) Baculovirus expression system (Invitrogen, cat#10359-016) and the recombinant protein was purified by Ni-NTA method. The elution buffer for hBTK consisted of 50 mM Hepes pH 8.0, 300 mM NaCl, 10% glycerol, 1 mM dithiothreitol and 200 mM imidazole.
The inhibition assays were performed using the generic tyrosine kinase assay kit from Cis Bio (HTRF® KinEASE - TK™ # 62TK0PEB). The assay is based on the principle of fluorescence resonance energy transfer (FRET) between the Europium Cryptate labeled anti-phosphotyrosine antibody and streptavidin labeled fluorophore, XL-665. In an uninhibited kinase reaction the biotinylated peptide substrate (Tk-Biotin) gets phosphorylated at an intermediate tyrosine site which is captured by anti-phosphotyrosine antibody which eventually acts as a FRET donor. The streptavidin labeled XL-665 binds strongly to the Tk-Biotin substrate and act as a FRET acceptor. The resultant FRET signal is measured at 665 nm. A ratio of this specific fluorescence (665nm) to the background fluorescence (620nm), conferred by the free antibody, is directly proportional to the kinase activity.
The Btk inhibition assays were performed using 20 ng/ml of rhBtk in a final volume of 10µl reaction buffer containing 77 µM ATP and 1 µM TK-Biotin Substrate in 50 mM HEPES pH 7.0, 5mM MgCl2, 1mM DTT, 0.01% Tween 20 and 50nM SEB®; with a range of concentrations of the inhibitors. The kinase reaction was carried out at the KM of ATP (77 µM) as well as that of Tk-Biotin substrate (1 µM). After 90 minutes, the reaction was stopped by addition of SA-XL665 at a concentration of 62.5 nM in HTRF® detection buffer containing EDTA. Finally 5 µL of TK antibody-cryptate was added to the reaction and the plate was incubated for additional 60 minutes. The fluorescence was read using the FlexStation (Molecular Devices) with excitation at 340 nm and emissions at 620nm (for Cryptate) and 665nm (for FRET). A ratio of the 2 emissions was calculated for each well and expressed as follows: Specific signal = Ratio(Sample)−Ratio(Negative) [formula] Ratio = (665nm/620nm) × 10^4 [formula] Mean Ratio = ∑Ratio/3(triplicates) [formula]
For each data point, % inhibition is calculated based on uninhibited reaction which is considered as 100% activity over no enzyme or substrate controls. Dose response data is then fit using a four parameter logistic equation using GraphPad Prism 5 software to determine inhibition constant 50(IC50).

[3] = tested on: B cell activation as measured by CD69 expression in Human whole blood; assay: Inhibition of B cell activation as measured by CD69 expression in Human whole blood (flow cytometry); format: cell-based; settings: heparinized human whole blood, anti-IgD antibody 30 µg/mL, 4 hours, CD69 positive cells among CD20 B cells
Experimental: Inhibition of B cell activation as measured by CD69 expression in Human whole blood
To test the effect of BTK inhibitors in suppressing B-cell receptor (BCR) mediated activation of B cells, we developed a flow cytometry based assay to analyze CD69 expression in B cell population in human whole blood. Freshly collected heparinized human whole blood (60 µL/well) was dispensed in 96-well U bottom plate (Greiner), treated with the test compound at a concentrations ranging from 10 µM to 0.3 nM (half log dilutions). 0.5% DMSO (Sigma, cat#D2650) was used as vehicle control. The whole blood was incubated with compounds for 1 hour, followed by stimulation with anti-IgD antibody (Goat Anti-Human IgD Antibody - affinity purified, Bethyl laboratories, cat#A80-106A) at a final concentration of 30 µg/mL at 37°C and 5% CO2 for 4 hours. Subsequently, 45 µL blood was transferred to 1.5 ml microcentrifuge tubes and 1.2 µL of anti-CD20-PE.Cy5 (BD Biosciences, cat#561761)and 1.6 µL of anti-CD69-PE (eBioscience, cat#12-0691-83) antibody were added and mixed properly by gently tapping the tubes. Blood was stained for 20 minutes at room temperature (RT). After antibody incubation, 1 mL pre-warmed 1X Lyse/Fix solution (BD Biosciences, cat#558049) was added and cells were incubated at RT for 10 minutes. Then the tubes were centrifuged at 450xg for 5 minutes at RT and supernatant was removed. Pellet was disrupted by gentle tapping, cells were washed with 1 mL freshly prepared wash buffer and centrifuged at 450xg for 5 minutes at RT. Supernatant was removed completely before resuspending cells in 200 µl of wash buffer and proceeded for acquisition in Guava Easy Cyte Mini instrument. Acquisition was done with following laser settings: FSC Gain: X 16, FSC fine gain 100%, SSC: 893V, GRN: 663V, YLW: 649V, RED: 802V, Threshold Parameters Offset: FSC 0.73 V Threshold 300 units. The cells were diluted in such a way so that cell conc. should not exceed 500 cells/µL and at least 5000 cells were acquired. Viable lymphocytes were gated from the forward and side scatter profile of cells and B cells were sub-gated based on CD20-PE.Cy5 staining. Percent of CD69-PE positive cells were calculated among B lymphocyte sub-gate using Weasel software. Percent activity for each data point was calculated using following formula: [formula]
as §1

T1 sequence (Q06187 whole entry): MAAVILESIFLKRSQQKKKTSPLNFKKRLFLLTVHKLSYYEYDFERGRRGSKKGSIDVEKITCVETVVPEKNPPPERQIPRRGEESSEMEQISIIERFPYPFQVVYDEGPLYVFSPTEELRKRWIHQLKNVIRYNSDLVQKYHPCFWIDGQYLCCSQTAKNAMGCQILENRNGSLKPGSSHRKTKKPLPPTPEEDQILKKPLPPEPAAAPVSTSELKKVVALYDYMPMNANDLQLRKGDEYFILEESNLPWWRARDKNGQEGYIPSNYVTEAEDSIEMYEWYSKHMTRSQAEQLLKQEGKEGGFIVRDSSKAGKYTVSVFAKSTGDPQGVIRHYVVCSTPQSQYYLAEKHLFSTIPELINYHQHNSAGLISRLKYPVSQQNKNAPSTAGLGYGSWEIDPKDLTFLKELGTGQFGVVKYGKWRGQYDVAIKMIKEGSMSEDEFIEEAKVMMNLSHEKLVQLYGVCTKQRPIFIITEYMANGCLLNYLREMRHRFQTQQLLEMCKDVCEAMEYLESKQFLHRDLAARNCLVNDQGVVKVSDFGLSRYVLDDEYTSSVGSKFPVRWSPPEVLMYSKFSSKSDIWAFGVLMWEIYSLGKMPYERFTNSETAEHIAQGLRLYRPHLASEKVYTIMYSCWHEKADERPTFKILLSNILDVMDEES

IC50 [1]: 9 nM
IC50 [2]: 1.3 nM
IC50 [3]: 124 nM
SMILES: O=C1c2c(F)cc(C3CC3)cc2OCCN1c1cc(F)cc(-c2ccnc3[nH]c(C4=CCN(C5COC5)CC4)cc23)c1CO [Example 8, 8-cyclopropyl-6-fluoro-4-[5-fluoro-2-(hydroxymethyl)-3-[2-[1-(oxetan-3-yl)-3,6-dihydro-2H-pyridin-4-yl]-1H-pyrrolo[2,3-b]pyridin-4-yl]phenyl]-2,3-dihydro-1,4-benzoxazepin-5-one]

From patent EP3042903B1, “Substituted hetero-bicyclic compounds, compositions and medicinal applications thereof” (Impetis Biosciences Ltd., priority 2015, dated 2016)
